# Target: T1, HSL (Rattus norvegicus, UniProt P15304)
# T1 construct: The partially purified HSL can be stored at −70° C. for 4 to 6 weeks; from tissue; host or cells: rat epididymal fat cells (male Wistar rats)
# T1 sequence (P15304 1-768 isoform P15304-2): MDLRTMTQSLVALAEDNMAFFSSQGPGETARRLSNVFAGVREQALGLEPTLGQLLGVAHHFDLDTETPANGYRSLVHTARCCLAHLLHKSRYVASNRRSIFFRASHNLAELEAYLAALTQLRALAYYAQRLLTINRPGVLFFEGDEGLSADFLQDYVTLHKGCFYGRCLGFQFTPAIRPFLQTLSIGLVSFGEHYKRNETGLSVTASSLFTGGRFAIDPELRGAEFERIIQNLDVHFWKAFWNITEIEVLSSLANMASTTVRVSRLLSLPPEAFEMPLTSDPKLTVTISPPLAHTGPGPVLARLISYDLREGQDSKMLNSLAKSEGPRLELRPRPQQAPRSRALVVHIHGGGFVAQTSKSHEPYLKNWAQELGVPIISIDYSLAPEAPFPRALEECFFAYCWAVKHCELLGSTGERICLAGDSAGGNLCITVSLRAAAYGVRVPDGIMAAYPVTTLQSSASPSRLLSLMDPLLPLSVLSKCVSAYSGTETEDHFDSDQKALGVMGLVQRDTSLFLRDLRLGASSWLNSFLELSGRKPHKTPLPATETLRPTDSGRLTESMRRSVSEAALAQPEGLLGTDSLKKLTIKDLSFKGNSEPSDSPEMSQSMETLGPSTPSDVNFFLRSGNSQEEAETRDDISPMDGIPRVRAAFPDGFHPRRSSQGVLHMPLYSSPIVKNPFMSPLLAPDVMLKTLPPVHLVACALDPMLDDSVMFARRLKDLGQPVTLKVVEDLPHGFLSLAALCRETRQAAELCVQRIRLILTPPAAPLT
# Experiment: Direct NAG assay (released NBD-FA, TLC/fluorimetry)
# Type: biochemical
# Settings: for Absorption change, Released NBD-FA, 550 nm: 60 min, NAG 0.05 mg/ml
# Description: Isolated rat fat cells are obtained from epididymal fatty tissue from untreated male rats (Wistar, 220-250 g) by collagenase treatment according to published processes. The fat cells from 10 rats are washed three times by flotation with 50 ml each of homogenization buffer ([…], pH 7.4, 0.25 M sucrose, 1 mM ethylenediamine-N,N,N′,N′-tetraacetic acid (EDTA), 1 mM dithiothreitol (DTT), 10 μg/ml of leupeptin, 10 μg/ml of antipain, 20 μg/ml of pepstatin) and finally taken up in 10 ml of homogenization buffer. The fat cells are homogenized in a Teflon-in-glass homogenizer (Braun-Melsungen) by 10 strokes at 1500 rpm and 15° C. The homogenizate is centrifuged (Sorvall SM24 tubes, 5000 rpm, 10 min, 4° C.). The […] between the overlying fatty layer and the pellet is removed and the centrifugation is repeated. The […] resulting from this is centrifuged again (Sorvall SM24 tubes, 20,000 rpm, 45 min, 4° C.). […] After incubation for 60 min at 4° C. (shake at intervals of 15 min), the batch is centrifuged (Sorvall SM24 tubes, 3000 rpm, 10 min, 4° C.). The supernatant is brought to pH 5.2 by addition of glacial acetic acid and incubated at 4° C. for 30 min. The precipitates are collected by centrifugation (Sorvall SS34, 12,000 rpm, 10 min, 4° C.) and suspended in 2.5 ml of 20 mM TRIS/HCl, pH 7.0, 1 mM EDTA, 65 mM NaCl, 13% sucrose, 1 mM DTT, 10 μg/ml of leupeptin/pepstatin/antipain. The suspension is dialyzed overnight at 4° C. against 25 mM TRIS/HCl, pH 7.4, 50% glycerol, 1 mM DTT, and 10 μg/ml of leupeptin, pepstatin, and antipain and then applied to a hydroxylapatite column (0.1 g per 1 ml of suspension, equilibrated with 10 mM potassium phosphate, pH 7.0, 30% glycerol, 1 mM DTT). The column is washed with four volumes of equilibration buffer at a flow rate of 20 to 30 ml/h. The HSL is eluted with a volume of equilibration buffer which contains 0.5 M potassium phosphate, then dialyzed (see above) and concentrated 5 to 10 times by ultrafiltration (Amicon Diaflo PM 10 filter) at 4° C. The partially purified HSL can be stored at −70° C. for 4 to 6 weeks.
# 6 mg of phosphatidylcholine and 6 mg of phosphatidylinositol are dissolved in 1 ml of chloroform each. 10 mg of NAG are dissolved in 1 ml of chloroform. Two parts of phosphatidylinositol solution (e.g., 83.5 μl) and one part of phosphatidylcholine solution (e.g., 41.5 μl) and 100 μl of NAG solution are pipetted together into plastic scintillation containers (final concentration in the test: 0.0375 mg of phospholipid/ml; 0.05 mg/NAG/ml). The chloroform (225 μl total volume) is completely removed by overblowing with a stream of N2. The dried substrate can be stored at 4° C. for up to three days. For the preparation of the phospholipid vesicles/micelles having intercalated NAG (on the test day), the dried substrate is taken up in 20 ml of assay buffer (25 mM TRIS/HCl, pH 7.4; 150 mM NaCl) and two ultrasonic treatments with an ultrasonic probe (Branson Sonifier type 11, standard microtip): 1st treatment setting 2, 2×1 min, in between in each case 1 min on ice; 2nd treatment setting 4, 2×1 min, in between in each case 1 min on ice. During this procedure, the color of the substrate solution changed from yellow (extinction maximum 481 nm) to red (extinction maximum 550 nm) due to intercalation of NAG between the phospholipid molecules of the vesicles/micelles. Before use as a substrate (within the next 2 h), the solution is additionally incubated on ice for 15 min.
# Altematively to the measurement of the extinction change of the substrate solution, the products of the HSL reaction are investigated by phase separation/thin-layer chromatography. For this, the incubation batch (200 μl total volume, see indirect NAG assay) is mixed in 2 ml Eppendorf vessels with 1.3 ml of methanol/chloroform/heptane (10:9:7) and then with 0.4 ml of 0.1 M NaOH. After intensive mixing (10 sec), the phase separation is initiated by centrifugation (800×g, 20 min, room temperature). […]
Structure (SMILES),IC50 [nM],"Absorption change, Released NBD-FA, 550 nm (HSL 1 μg) [arb. units]","Absorption change, Released NBD-FA, 550 nm (HSL 2 μg) [arb. units]","Absorption change, Released NBD-FA, 550 nm (HSL 5 μg) [arb. units]","Absorption change, Released NBD-FA, 550 nm (HSL 7.5 μg) [arb. units]","Absorption change, Released NBD-FA, 550 nm (HSL 10 μg) [arb. units]","Absorption change, Released NBD-FA, 550 nm (HSL 15 μg) [arb. units]","Absorption change, Released NBD-FA, 550 nm (HSL 20 μg) [arb. units]","Absorption change, Released NBD-FA, 550 nm (HSL 25 μg) [arb. units]","Absorption change, Released NBD-FA, 550 nm (HSL 30 μg) [arb. units]","Absorption change, Released NBD-FA, 550 nm (HSL 40 μg) [arb. units]","Absorption change, Released NBD-FA, 550 nm (HSL 60 μg) [arb. units]","Absorption change, Released NBD-FA, 550 nm (HSL 80 μg) [arb. units]"
O=C(CCCCCCCCCCCNc1ccc([N+](=O)[O-])c2nonc12)OCC(O)CO (racemic) [Compound 3],1020 ± 250,–,–,–,–,–,–,–,–,–,–,–,–
O=C(CCCCCCCCCCCNc1ccc([N+](=O)[O-])c2nonc12)OCC(O)CO (stereo not shown) [Compound (3)],–,17 ± 2,44 ± 5,103 ± 11,157 ± 21,215 ± 24,320 ± 29,432 ± 53,544 ± 61,616 ± 56,693 ± 67,733 ± 80,746 ± 98
